According to patent publication US8778871B2 (Takeda Pharmaceutical Company Limited, priority 2004, dated 2014):
Non-standard residues stand in square brackets, D forms with d. Residues, ends and D or L forms follow the SMILES beside them. *: point of attachment. X10 = CNC(=N)NCCC[C@H](NC(=O)[C@H](CC(C)C)NCCN*)C(=O)N[C@@H](Cc1ccccc1)C(N)=O; Acetyl(2-(4-imidazolyl)) = O=C(Cc1c[nH]cn1)*; Phe(4-F) = N[C@@H](Cc1ccc(F)cc1)C(=O)O; Arg(Me) = CNC(=N)NCCC[C@H](N)C(=O)O; 4Pal = N[C@@H](Cc1ccncc1)C(=O)O; d4Pal = N[C@H](Cc1ccncc1)C(=O)O; Cha = N[C@@H](CC1CCCCC1)C(=O)O; Tos = Cc1ccc(S(=O)(=O)*)cc1; Cbz = O=C(OCc1ccccc1)*; Bz = O=C(c1ccccc1)*; azaGly = NNC(=O)O

Target: T1, hOT7T175 (Homo sapiens, UniProt Q969F8)
T1 construct: expressed in transfected cells
T1 sequence (Q969F8 whole entry L364H): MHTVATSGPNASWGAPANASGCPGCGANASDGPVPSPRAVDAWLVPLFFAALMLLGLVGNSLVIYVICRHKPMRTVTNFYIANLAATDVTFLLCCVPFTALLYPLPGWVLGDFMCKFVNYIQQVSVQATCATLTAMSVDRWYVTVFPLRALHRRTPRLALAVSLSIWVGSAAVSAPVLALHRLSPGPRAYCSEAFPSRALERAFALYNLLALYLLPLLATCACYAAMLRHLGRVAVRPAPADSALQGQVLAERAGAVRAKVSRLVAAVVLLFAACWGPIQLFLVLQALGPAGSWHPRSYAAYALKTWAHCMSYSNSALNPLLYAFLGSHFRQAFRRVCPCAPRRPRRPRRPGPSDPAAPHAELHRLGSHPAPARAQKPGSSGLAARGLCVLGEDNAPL
Assay: Intracellular Ca ion level-increasing activity using FLIPR (180 seconds; specific activity to Metastin (1-54))
Type: cell-based
Details: hOT7T175/CHO, change in intracellular calcium ion level for 180 seconds, Tables 21-23
Method: In accordance with the method described in JPA 2000-312590, the intracellular Ca ion level-increasing activity was measured using FLIPR. […]
The intracellular Ca ion level-increasing activity of the synthetic peptide in hOT7T175/CHO was determined using FLIPR (Molecular Devices, Inc.).
hOT7T175/CHO was subcultured in DMEM supplemented with 10% dialyzed fetal bovine serum (hereinafter abbreviated as dFBS) and provided for the experiment (hereinafter abbreviated as 10% dFBS/DMEM). The hOT7T175/CHO was suspended in 10% dFBS-DMEM in 15×10^4 cells/ml. The suspension was inoculated on a 96-well plate for FLIPR (Black Plate Clear Bottom, Coster, Inc.) at 200 μl each (3.0×10^4 cells/200 μl), followed by incubation at 37° C. overnight in a 5% CO2 incubator. The cells thus incubated were used (hereinafter simply referred to as the cell plate). Then, 21 ml of HANKS/HBSS (9.8 g of HANKS', 0.35 g of sodium hydrogencarbonate, 20 ml of 1M HEPES; after adjusting the pH to 7.4 with 1N sodium hydroxide, the mixture was subjected to sterilization through a filter), 210 μl of […] Probenecid and 210 μl of fetal bovine serum (FBS) were mixed (HANKS/HBSS-Probenecid-FBS).
Furthermore, 2 vials of Fluo3-AM (50 μg/vial) were dissolved in 21 μL of dimethylsulfoxide and 21 μL of 20% Pluronic acid. The resulting solution was added to and mixed with 10 ml of HANKS/HBSS-Probenecid-FBS described above. After the culture medium was removed, the mixture was dispensed onto the cell plate in 100 μl each/well, followed by incubation at 37° C. for an hour in a 5% CO2 incubator (pigment loading). The peptide was dissolved in dimethylsulfoxide in 1×10^−3 M. The peptide solution was diluted with HANKS'/HBSS containing 2.5 mM Probenecid and 0.2% BSA. The dilution was transferred to a 96-well plate for FLIPR (V-Bottom plate, Coster, Inc.) (hereinafter referred to as a sample plate). After completion of the pigment loading onto the cell plate, the cell plate washed 4 times with wash buffer, which was obtained by adding 2.5 mM Probenecid to HANKS'/HBSS, using a plate washer to leave 100 μL of wash buffer after the washing. The cell plate and the sample plate were set in FLIPR and 0.05 ml of a sample from the sample plate was automatically transferred to the cell plate with the FLIPR device to promote the cell response. A change in intracellular calcium ion level for 180 seconds was measured with passage of time.

Row | Molecule | intracellular Ca ion level-increasing activity [specific activity to Metastin (1-54)]
1 | CNC(=N)NCCC[C@H](NC(=O)[C@H](CC(C)C)NC(=O)NNC(=O)[C@H](Cc1ccccc1)NC(=O)[C@H](CO)NC(=O)[C@H](CC(N)=O)NC(=O)[C@H](Cc1ccncc1)NC(=O)[C@@H](CC(N)=O)NC(=O)[C@@H](N)Cc1ccc(O)cc1)C(=O)N[C@@H](Cc1ccccc1)C(N)=O [Compound No. 304, Tyr-D-Asn-Pya(4)-Asn-Ser-Phe-AzaGly-Leu-Arg(Me)-Phe-NH2] (H-Y[dN][4Pal]NSF[azaGly]L[Arg(Me)]F-NH2) | 3
2 | CNC(=N)NCCC[C@H](NC(=O)[C@H](CC(C)C)NC(=O)NNC(=O)[C@H](Cc1ccccc1)NC(=O)[C@H](CO)NC(=O)[C@H](CC(N)=O)NC(=O)[C@H](CC1CCCCC1)NC(=O)[C@@H](CC(N)=O)NC(=O)[C@H](N)Cc1ccncc1)C(=O)N[C@@H](Cc1ccccc1)C(N)=O [Compound No. 306, D-Pya(4)-D-Asn-Cha-Asn-Ser-Phe-AzaGly-Leu-Arg(Me)-Phe-NH2] (H-[d4Pal][dN][Cha]NSF[azaGly]L[Arg(Me)]F-NH2) | 2
3 | CNC(=N)NCCC[C@H](NC(=O)[C@H](CC(C)C)NCCNC(=O)[C@H](Cc1ccccc1)NC(=O)[C@H](CO)NC(=O)[C@H](CC(N)=O)NC(=O)[C@H](Cc1c[nH]c2ccccc12)NC(=O)[C@H](CC(N)=O)NC(=O)[C@H](N)Cc1ccc(O)cc1)C(=O)N[C@@H](Cc1ccccc1)C(N)=O [Compound No. 307, D-Tyr-Asn-Trp-Asn-Ser-Phe-GlyΨ(CH2NH)Leu-Arg(Me)-Phe-NH2] (H-[dY]NWNSF-X10) | 1
4 | CNC(=N)NCCC[C@H](NC(=O)[C@H](CC(C)C)NC(=O)NNC(=O)[C@H](Cc1ccccc1)NC(=O)[C@H](CO)NC(=O)[C@H](CC(N)=O)NC(=O)[C@@H](NC(=O)[C@@H](CC(N)=O)NC(=O)[C@H](N)Cc1ccc(O)cc1)[C@@H](C)O)C(=O)N[C@@H](Cc1ccc(F)cc1)C(N)=O [Compound No. 316, D-Tyr-D-Asn-Thr-Asn-Ser-Phe-AzaGly-Leu-Arg(Me)-Phe(4F)-NH2] (H-[dY][dN]TNSF[azaGly]L[Arg(Me)][Phe(4-F)]-NH2) | 1
5 | CNC(=N)NCCC[C@H](NC(=O)[C@H](CC(C)C)NC(=O)NNC(=O)[C@H](Cc1ccccc1)NC(=O)[C@H](CO)NC(=O)[C@H](CC(N)=O)NC(=O)[C@H](Cc1ccncc1)NC(=O)[C@@H](CC(N)=O)NC(=O)[C@H](N)Cc1ccc(O)cc1)C(=O)N[C@@H](Cc1ccc(F)cc1)C(N)=O [Compound No. 317, D-Tyr-D-Asn-Pya(4)-Asn-Ser-Phe-AzaGly-Leu-Arg(Me)-Phe(4F)-NH2] (H-[dY][dN][4Pal]NSF[azaGly]L[Arg(Me)][Phe(4-F)]-NH2) | 1
6 | CNC(=N)NCCC[C@H](NC(=O)[C@H](CC(C)C)NC(=O)NNC(=O)[C@H](Cc1ccccc1)NC(=O)[C@H](CO)NC(=O)[C@H](CC(N)=O)NC(=O)Cc1c[nH]cn1)C(=O)N[C@@H](Cc1ccccc1)C(N)=O [Compound No. 323, 4-Imidazoleacetyl-Asn-Ser-Phe-AzaGly-Leu-Arg(Me)-Phe-NH2] ({Acetyl(2-(4-imidazolyl))}-NSF[azaGly]L[Arg(Me)]F-NH2) | 1
7 | (2R)-2-Benzoyloxy-3-phenylpropionyl-AzaGly-Leu-Arg(Me)-Trp-NH2 [Compound No. 412] | ⅕
8 | (2S)-2-Benzoyloxy-3-phenylpropionyl-AzaGly-Leu-Arg(Me)-Trp-NH2 [Compound No. 380] | 5
9 | (2S)-2-acetoxy-3-phenylpropionyl-AzaGly-Leu-Arg(Me)-Trp-NH2 [Compound No. 373] | 2
10 | (R)-3-hydroxy-2-methylpropionyl-Phe-AzaGly-Leu-Arg(Me)-Trp-NH2 [Compound No. 452] | 1
11 | (S)-1-(Quinolin-8-yl-carbamoyl)-4-thiapentylcarbamoyl-D-Tyr-Asn-Trp-Asn-Ser-Phe-Gly-Leu-Arg(Me)-Phe-NH2 [Compound No. 400] | 1
12 | Ac-F[azaGly]L[Arg(Me)]F-NH2 [Compound No. 346] | 2
13 | Benzoyl-AzaPhe-AzaGly-Leu-Arg(Me)-Trp-NH2 [Compound No. 431] | 1
14 | Benzoyl-PheΨ(CH2O)Gly-Leu-Arg(Me)-Trp-NH2 [Compound No. 421] | ⅓
15 | Benzoyl-Pya(2)-AzaGly-Leu-Arg(Me)-Trp-NH2 [Compound No. 441] | 1
16 | Benzoyl-Pya(4)-AzaGly-Leu-Arg(Me)-Trp-NH2 [Compound No. 442] | ½
17 | Benzyl-Phe-AzaGly-Leu-Arg(Me)-Trp-NH2 [Compound No. 450] | ⅓
18 | Benzylphenethylcarbamoyl-AzaGly-Leu-Arg(Me)-Trp-NH2 [Compound No. 417] | 1

Row | Molecule | intracellular Ca ion level-increasing activity [specific activity to Metastin (1-54)]
19 | Bz-A[azaGly]L[Arg(Me)]W-NH2 [Compound No. 392] | ⅕
20 | Bz-FGLRF-NH2 [Compound No. 351] | ½
21 | Cbz-F[azaGly]L[Arg(Me)]F-NH2 [Compound No. 348] | ⅕
22 | Cbz-[azaGly]L[Arg(Me)]W-NH2 [Compound No. 374] | ⅓
23 | Cyclohexanecarbonyl-Phe-AzaGly-Leu-Arg(Me)-Trp-NH2 [Compound No. 439] | 2
24 | D-Tyr-D-Pya(4)-Asn-Ser-Phe-AzaGly-Leu-Har(Me)-Phe-NH2 [Compound No. 489] | ½
25 | D-Tyr-D-Pya(4)-Asn-Ser-Phe-AzaGly-Leu-Lys-Phe-NH2 [Compound No. 487] | 1
26 | D-Tyr-D-Pya(4)-Asn-Ser-Phe-AzaGly-Leu-Orn-Phe-NH2 [Compound No. 486] | ½
27 | D-Tyr-Pya(4)-Phe-AzaGly-Leu-Arg(Me)-Trp-NH2 [Compound No. 495] | ⅙
28 | Dibenzylaminocarbamoyl-AzaGly-Leu-Arg(Me)-Trp-NH2 [Compound No. 428] | 1/10
29 | Dibenzylaminocarbamoylacetyl-Leu-Arg(Me)-Trp-NH2 [Compound No. 434] | 1/10
30 | Indole-3-acetyl-Phe-AzaGly-Leu-Arg(Me)-Phe-NH2 [Compound No. 345] | 2
31 | Indole-3-carbonyl-Phe-AzaGly-Leu-Arg(Me)-Phe-NH2 [Compound No. 344] | ½
32 | Methylthiocarbamoyl-Sar-D-Tyr-Asn-Trp-Asn-Ser-Phe-Gly-Leu-Arg(Me)-Phe-NH2 [Compound No. 397] | 5
33 | Phenylacetyl-Phe-AzaGly-Leu-Arg(Me)-Trp-NH2 [Compound No. 440] | 1
34 | Propionyl-Phe-AzaGly-Leu-Arg(Me)-Trp-NH2 [Compound No. 437] | 2
35 | Pyrazinecarbonyl-Phe-AzaGly-Leu-Arg(Me)-Trp-NH2 [Compound No. 446] | 1
36 | Tos-F[azaGly]L[Arg(Me)]F-NH2 [Compound No. 349] | ⅕
